# Measurements reported in ChEMBL document CHEMBL1127888, “Synthesis and biological activity of intercalator substituted bile steroids” (Bioorg Med Chem Lett, 1994).
# Columns and labels:
# L1210 [1] = assay: Inhibitory activity against mouse leukemia L1210 cells; Range is 20 to >50; type: functional, cell-based
# L1210 [2] = assay: Inhibitory activity against mouse leukemia L1210 cells; type: functional, cell-based
Compound,IC50 (L1210 [1]) [µM],IC50 (L1210 [2]) [µM]
CC(CCCOC(=O)c1cnc2ccccc2c1)C1CC[C@H]2[C@@H]3[C@H](O)CC4C[C@H](O)CC[C@]4(C)[C@H]3C[C@H](O)[C@]12C (stereo not given in full),–,4.8
CC(CCCOC(=O)c1cnc2ccccc2c1)C1CC[C@H]2[C@@H]3[C@H](O)CC4C[C@H](OC(=O)c5cnc6ccccc6c5)CC[C@]4(C)[C@H]3C[C@H](O)[C@]12C (stereo not given in full),> 50,–
CC(CCCOC(=O)c1cnc2ccccc2n1)C1CC[C@H]2[C@@H]3[C@H](O)CC4C[C@H](OC(=O)c5cnc6ccccc6n5)CC[C@]4(C)[C@H]3C[C@H](O)[C@]12C (stereo not given in full),> 50,–

# More lines, now with the values ahead:
IC50 (L1210 [1]) [µM],IC50 (L1210 [2]) [µM],Compound
> 50,–,CC(CCCOC(=O)c1ccc2ccccc2n1)C1CC[C@H]2[C@@H]3[C@H](O)CC4C[C@H](OC(=O)c5cnc6ccccc6n5)CC[C@]4(C)[C@H]3C[C@H](O)[C@]12C (stereo not given in full)
> 50,–,CC(CCCOC(=O)c1ccc2ccccc2n1)C1CC[C@H]2[C@@H]3[C@H](O)CC4C[C@H](OC(=O)c5ccc6ccccc6n5)CC[C@]4(C)[C@H]3C[C@H](O)[C@]12C (stereo not given in full)
